Source: patent US7326721B2 (Hypnion, Inc., priority 2003, dated 2008)

System: Crl: CD(SD)IGS BR rats
Assay: Acute rat study (toxicity and MTD, oral gavage, 5 days)
Assay type: in vivo
Experimental: The purpose of this study was to evaluate the toxicity and maximum tolerated dose (MTD) of the test articles when given via oral gavage to rats. Male Crl: CD®(SD)IGS BR rats (3/group) were assigned to 5 groups. At initiation of dosing, animals were approximately 7 weeks old with body weights ranging from 172 to 206 g. Each group received either 50, 100, 150, 200, or 250 mg/kg of HY2901 once daily for 5 days. All surviving animals were sacrificed on Day 6. Assessment of toxicity was based on mortality, clinical observations, and body weight data.

[1] = 50 to 250 mg/kg once daily for 5 days

## CC(C)(CN1CCC(=C2c3ccc(F)cc3COc3ccccc32)CC1)C(=O)O [Compound 49a]
[1]
  ataxia: dose-response relationship was observed in the incidence and duration of ataxia
  hypoactivity / apparent sleep: Hypoactivity was observed in all rats
Two 250 mg/kg rats, relative to other rats
  Day 6 body weights: slightly decreased
